This passage reports EC50, CC50 and selectivity ratio results from ChEMBL document CHEMBL1156536, “Thiocarbamates as non-nucleoside HIV-1 reverse transcriptase inhibitors. Part 2: Parallel synthesis, molecular modelling and structure-activity relationship studies on analogues of O-(2-phenylethyl)-N-phenylthiocarbamate” (Bioorg Med Chem, 2008).

As usually defined, the EC50 is the concentration giving half of the maximal effect. For orientation: CC50 means the concentration at which the toxic effect on the cells reaches its halfway point.

Data set [1] relates to Human immunodeficiency virus 1. Put plainly: Antiviral activity against HIV1 in human MT4 cells assessed as inhibition of virus-induced cytopathogenicity by MTT assay. It is filed as functional, organism-based. The conditions noted are these: Human immunodeficiency virus 1, MT4. (Protection from cytopathic effect is a common read-out in antiviral testing.)
Data set [2] in a line: Cytotoxicity against mock-infected human MT4 cells by MTT assay. It counts as cell-based. On the technique in general: Tetrazolium dyes change colour on reduction, which living cells bring about.
The nature of data set [3]: Selectivity index, ratio of CC50 for human MT4 cells to EC50 for HIV1. The settings on record: read-out: Ratio CC50/EC50. It counts as toxicity, cell-based.

For `CC(COc1ccccc1)OC(=S)Nc1ccc(Cl)cc1` (racemic), the EC50 in data set [1] came to 1.6 µM. This molecule also had a CC50 in data set [2] of over 100 µM. Also, the selectivity ratio in data set [3] was over 63.

In the case of `COc1ccc(NC(=S)OC(C)COc2ccccc2)cc1` (racemic), in data set [1], the concentration giving a half-maximal response (EC50) is over 100 µM. For the same molecule, in data set [2], the CC50 was over 100 µM.

`COc1ccccc1CCOC(=S)Nc1ccc([N+](=O)[O-])cc1`: the EC50 in data set [1] was determined as 0.1 µM. Further, in data set [2], the CC50 was over 100 µM. For the same molecule, the selectivity ratio in data set [3] is over 1000.

In the case of `CC(COC(=S)Nc1ccc(Cl)c([N+](=O)[O-])c1)c1ccccc1` (racemic), the EC50 in data set [1] is 0.5 µM. In addition, the CC50 in data set [2] worked out at 41 µM. For the same molecule, the selectivity ratio in data set [3] is 82.

For `O=[N+]([O-])c1ccc(NC(=S)OCCc2ccc(O)cc2)cc1`, the EC50 in data set [1] was over 41 µM. Moreover, half-maximal cytotoxicity in data set [2] (CC50) was put at 41 µM. In addition, the selectivity ratio in data set [3] is under 1.

`S=C(Nc1ccccc1)OCCCc1ccccc1`: in data set [1], the EC50 was found to be 67 µM. The same molecule yielded a CC50 in data set [2] of over 100 µM. Also, the selectivity ratio in data set [3] was over 1.5.

In the case of `COc1ccccc1CCOC(=S)Nc1ccc(Cl)c([N+](=O)[O-])c1`, the half-maximal effective concentration (EC50) in data set [1] came to 0.9 µM. The same molecule came in with a CC50 in data set [2] of 44 µM. In data set [3], the selectivity ratio was 49.

With `O=[N+]([O-])c1ccc(NC(=S)OCCc2ccc(Br)cc2)cc1`, the concentration for a half-maximal effect (EC50) in data set [1] stood at 7.9 µM. This molecule gave a CC50 in data set [2] of over 100 µM. For the same molecule, in data set [3], the selectivity ratio was over 13.

On to `S=C(Nc1ccccc1)OCC1COc2ccccc2O1` (centres undefined), for which the EC50 in data set [1] turned out to be 52 µM. In addition, the CC50 in data set [2] was over 100 µM. Also, in data set [3], the selectivity ratio is over 1.9.

In the case of `CC(Cc1ccccc1)OC(=S)Nc1ccccc1` (racemic), the EC50 in data set [1] stood at 9 µM. In data set [2], this molecule came in with a CC50 of over 100 µM. Besides, the selectivity ratio in data set [3] is over 11.

Regarding `S=C(Nc1ccccc1)OCCSc1ccccc1`, the EC50 in data set [1] amounted to 38 µM. The molecule also showed a CC50 in data set [2] of over 100 µM. In addition, the selectivity ratio in data set [3] was over 2.6.

In the case of `O=[N+]([O-])c1ccc(NC(=S)OCCc2cccc(O)c2)cc1`, in data set [1], the EC50 was determined as 3.7 µM. Moreover, the midpoint of cytotoxicity in data set [2], the CC50, lay at 24 µM. For the same molecule, the selectivity ratio in data set [3] stood at 6.5.

`Cc1ccc(NC(=S)OCCOc2ccccc2)cc1`: the EC50 in data set [1] came out at 10 µM. The same molecule came in with a CC50 in data set [2] of 74 µM. The selectivity ratio in data set [3] turned out to be 7.4.

On to `S=C(Nc1ccccc1)OCCOc1ccccc1`, for which, in data set [1], the EC50 turned out to be 5.8 µM. The molecule also showed a CC50 in data set [2] of over 100 µM. In data set [3], the selectivity ratio was over 17.

`COc1ccc(NC(=S)OCCOc2ccccc2)cc1`: the EC50 in data set [1] is 17 µM. Besides, in data set [2], the CC50 was determined as 48 µM. Moreover, the selectivity ratio in data set [3] was determined as 2.8.

For the molecule `CCC(OC(=S)Nc1ccccc1)c1ccccc1` (racemic), the EC50 in data set [1] is over 100 µM. The molecule also came in with a CC50 in data set [2] of over 100 µM.

With `COc1ccc(NC(=S)OCCc2ccccc2)cc1`, in data set [2], the CC50 worked out at 36 µM.

Regarding `CC(OC(=S)Nc1ccc(Cl)cc1)c1ccc2ccccc2c1` (racemic), the EC50 in data set [1] stood at 26 µM. Further, the CC50 in data set [2] was over 100 µM. For the same molecule, the selectivity ratio in data set [3] is over 3.8.

For the molecule `COc1cccc(CCOC(=S)Nc2ccc(Cl)c([N+](=O)[O-])c2)c1`, the EC50 in data set [1] turned out to be 2 µM. In addition, the CC50 in data set [2] amounted to 43 µM. For the same molecule, in data set [3], the selectivity ratio was determined as 22.

As to `O=[N+]([O-])c1ccc(NC(=S)OCCOc2ccccc2)cc1`, in data set [1], the EC50 amounted to 8.5 µM. For the same molecule, the CC50 in data set [2] was over 100 µM. The selectivity ratio in data set [3] was over 12.

As to `Cc1ccccc1CCOC(=S)Nc1ccc([N+](=O)[O-])cc1`, the EC50 in data set [1] worked out at 0.7 µM. In data set [2], this molecule gave a CC50 of over 100 µM. The selectivity ratio in data set [3] was over 143.

Consider `O=[N+]([O-])c1ccc(NC(=S)OCCc2cccc(Cl)c2)cc1`, for which, in data set [1], the EC50 came to 1.5 µM. In addition, the 50% cytotoxic concentration (CC50) in data set [2] was over 100 µM. For the same molecule, the selectivity ratio in data set [3] is over 67.

As for `O=[N+]([O-])c1ccc(NC(=S)OCCc2ccccc2)cc1`, the cytotoxic concentration (CC50) in data set [2] is over 100 µM.

Consider `Oc1ccccc1OCCOC(=S)Nc1ccccc1`, for which, in data set [1], the EC50 was determined as 19 µM. This molecule also registered a CC50 in data set [2] of over 100 µM. Also, the selectivity ratio in data set [3] is over 5.2.

With `O=[N+]([O-])c1ccc(OCCOC(=S)Nc2ccc(Cl)cc2)cc1`, the EC50 in data set [1] was over 72 µM. The CC50 in data set [2] came out at 72 µM. In data set [3], the selectivity ratio was under 1.

As to `S=C(Nc1ccc(Cl)cc1)OCCc1ccccc1`, the CC50 in data set [2] is over 100 µM.

`O=[N+]([O-])c1ccc(NC(=S)OCCOc2ccc(Br)cc2)cc1`: the EC50 in data set [1] was over 100 µM. Moreover, the CC50 in data set [2] was over 100 µM.

On to `COc1ccc(CCOC(=S)Nc2ccc([N+](=O)[O-])cc2)cc1`, for which the EC50 in data set [1] is 1.4 µM. The molecule further had a CC50 in data set [2] of over 100 µM. In data set [3], the selectivity ratio was over 71.

As to `S=C(Nc1ccccc1)OCc1cccs1`, the EC50 in data set [1] was over 38 µM. The molecule further yielded a CC50 in data set [2] of 38 µM. Moreover, the selectivity ratio in data set [3] is under 1.

In the case of `S=C(Nc1ccccc1)OCc1c(Cl)cccc1Cl`, the EC50 in data set [1] was over 100 µM. For the same molecule, the CC50 in data set [2] was over 100 µM.

On to `S=C(Nc1ccccc1)OCC1(c2ccccc2)CC1`, for which the EC50 in data set [1] came to 7 µM. The same molecule registered a CC50 in data set [2] of 51 µM. Besides, the selectivity ratio in data set [3] was 7.3.

Take `CC(COc1ccccc1)OC(=S)Nc1ccc([N+](=O)[O-])cc1` (racemic): the EC50 in data set [1] amounted to 2.6 µM. In addition, the CC50 in data set [2] was over 100 µM. Besides, the selectivity ratio in data set [3] is over 38.

Regarding `CC(OC(=S)Nc1ccccc1)c1ccc(Cl)cc1` (racemic), the concentration for a half-maximal effect (EC50) in data set [1] is 5.3 µM. Further, the CC50 in data set [2] is over 100 µM. The selectivity ratio in data set [3] was over 19.

On to `S=C(Nc1ccc(Cl)cc1)OCCOc1ccccc1`, for which the EC50 in data set [1] came to 2.9 µM. In addition, the CC50 in data set [2] was determined as 34 µM. The selectivity ratio in data set [3] came to 12.

On to `S=C(Nc1ccccc1)OCCc1ccccc1`, for which the midpoint of cytotoxicity in data set [2], the CC50, lay at 100 µM.

With `S=C(Nc1ccccc1)OCc1cccc(Oc2ccccc2)c1`, in data set [1], the EC50 was over 100 µM. This molecule came in with a CC50 in data set [2] of over 100 µM.

Molecule `Cc1ccc(NC(=S)OCCc2ccccc2)cc1` gave a CC50 in data set [2] of over 100 µM.

`CC(COc1ccccc1)OC(=S)Nc1ccc(F)cc1` (racemic): the EC50 in data set [1] was 11 µM. Besides, the CC50 in data set [2] is over 100 µM. Also, the selectivity ratio in data set [3] is over 9.

Take `S=C(Nc1ccccc1)OC1Cc2ccccc2C1`: the EC50 in data set [1] is 12 µM. The molecule also returned a CC50 in data set [2] of over 100 µM. Further, in data set [3], the selectivity ratio was over 8.3.

With `CC(OC(=S)Nc1ccc(Cl)cc1)c1ccc(-c2ccccc2)cc1` (racemic), the EC50 in data set [1] was found to be 57 µM. In addition, in data set [2], the CC50 was over 100 µM. The selectivity ratio in data set [3] is over 1.8.

With `CC(Cc1ccccc1)OC(=S)Nc1ccc([N+](=O)[O-])cc1` (racemic), in data set [1], the concentration giving a half-maximal response (EC50) amounted to 1.3 µM. For the same molecule, half-maximal cytotoxicity in data set [2] (CC50) was put at 39 µM. Also, the selectivity ratio in data set [3] turned out to be 30.

As to `S=C(Nc1ccccc1)OCC(c1ccccc1)c1ccccc1`, in data set [1], the EC50 was over 100 µM. In data set [2], this molecule yielded a 50% cytotoxic concentration (CC50) of over 100 µM.

Turning to `CC(OC(=S)Nc1ccc([N+](=O)[O-])cc1)c1ccc(Cl)cc1` (racemic), the EC50 in data set [1] was 7 µM. Moreover, the CC50 in data set [2] was over 100 µM. Besides, the selectivity ratio in data set [3] is over 14.

Regarding `O=[N+]([O-])c1ccc(NC(=S)OCCc2ccc(Cl)cc2)cc1`, the EC50 in data set [1] was determined as 13 µM. Moreover, the CC50 in data set [2] was over 100 µM. In addition, the selectivity ratio in data set [3] was over 7.7.

On to `CC(COC(=S)Nc1ccc(Cl)c(Cl)c1)c1ccccc1` (racemic), for which the EC50 in data set [1] came out at 0.3 µM. The same molecule returned a CC50 in data set [2] of 44 µM. In addition, in data set [3], the selectivity ratio amounted to 147.
